From the supplement of paper PMC8837787

Test system: Saccharomyces cerevisiae ABC16-Green Monster
Experiment: growth inhibition at single dose (up to 150 µM), below the 70% cut-off for dose-response; higher = more potent
Conditions: 18 h; 30 °C; YPD
How it was run: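 The entry is percent growth inhibition of drug-sensitive S. cerevisiae ABC16-Green Monster cells. After overnight growth in YPD at 30 °C, cells were diluted to OD600 0.1–0.2 and exposed to each library compound at 150 µM in 200 µl per well, in biological duplicates with untreated cultures beside them, and OD600 was read at 0 h and after 18 h at 30 °C. Any compound under 70% in both replicates was not carried to dose-response.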

| Compound | growth inhibition at single dose |
| --- | --- |
| O=C(Nc1ccccc1-c1nc2c(C(=O)O)cccc2o1)c1ccccc1 | < 70% |
| CN(C)CCNc1cc(-c2ccccc2)nc2ccccc12 | < 70% |
| O=C(Nc1ccsc1C(=O)NC1CCCCC1)c1ccc(F)cc1 | < 70% |
| CCN(CC)S(=O)(=O)c1ccc(-c2csc(Nc3ccc(C)c(C)c3)n2)cc1 | < 70% |
| Nc1nn(C(=O)c2csc3ccccc23)c2ccccc12 | < 70% |
| O=C(NCC(c1ccsc1)N1CCCCCC1)c1ccc(C(F)(F)F)cc1 (centres undefined) | < 70% |
| Cc1ccc(S(=O)(=O)Nc2cccc3ncccc23)s1 | < 70% |
| Cc1cc(C(=O)COC(=O)c2ccccc2C(F)(F)F)c(C)n1Cc1ccccc1Cl | < 70% |
| CCc1ccc(S(=O)(=O)Nc2cc(CN3CCN(CCC(C)C)CC3)ccc2C)cc1 | < 70% |
| O=C(NC1CC1)c1ccc(CSCc2ccccc2Cl)o1 | < 70% |
| COc1cccc2c(C)nc(N=C(N)N)nc12 | < 70% |
| COc1ccc(C=C2SC(Nc3ccccc3)=NC2=O)cc1 | < 70% |
| CCCCCn1c(=N)n(CC(O)COc2cccc(C)c2)c2ccccc21 (centres undefined) | < 70% |
| Cc1ccc(NC(=O)c2cnn(C(C)(C)C)c2C)cc1F | < 70% |
| CN(C)c1ccc(C=Cc2nc(=O)c3ccccc3o2)cc1 | < 70% |
| Oc1ccc2ccccc2c1CNc1nc2ccccc2[nH]1 | < 70% |
| CC1CC2=C(CC1CNCCCN(C)C)C(C)(C)CCC2 (centres undefined) | < 70% |
| COCc1nn2c3c(nnc2c1-c1ccccc1)C(=O)CC(c1ccccc1)C3 (centres undefined) | < 70% |
| CN(C)Cc1nc(=O)c2c([nH]1)-c1ccccc1CC2(C)C | < 70% |
| Brc1ccc(-[n+]2nc(-c3ccccc3)nn2-c2nn[nH]n2)cc1 | < 70% |
| Cc1[nH]c2ccc(F)cc2c(=O)c1I | < 70% |

| Compound | growth inhibition at single dose |
| --- | --- |
| Cc1nn(-c2ccc(F)cc2)c(Cl)c1/C=C1\C(=O)Nc2ccccc21 | < 70% |
| CC(C)c1ccc2c(c1)/C(=N/NC(=O)c1ccccc1F)C(=O)N2 | < 70% |
| O=C(Nc1ccc(Cl)cc1)Nc1nnc(CSCc2ccc(Cl)cc2)s1 | < 70% |
| CC(C)=CCN1CCC(C(=O)Nc2ccc(-c3nc4ccccc4[nH]3)cc2)CC1 | < 70% |
| CC(=O)NC(C)CCc1ccc(-c2csc(-c3ccc(NC(=O)C4CC4)cc3)n2)cc1 (centres undefined) | < 70% |
| COc1cc(C(=O)c2c(-c3ccccc3)cc3ccccn23)cc(OC)c1OC | < 70% |
| CCCCNc1nc(NC(C)(C)C)nc(NC(C)(C)C)n1 | < 70% |
| CC(C)NC(=O)N1CCCC(C(=O)Nc2nc3ccccc3[nH]2)C1 (centres undefined) | < 70% |
| CC1(C)OB(O)c2ccc(C3=NOC(c4cc(Cl)c(F)c(Cl)c4)(C(F)(F)F)C3)cc21 (centres undefined) | < 70% |
| O=c1c2ccccc2[nH]c2ccc(Oc3ncnc4ccsc34)cc12 | < 70% |
| O=C(NCc1ccco1)N1CCN(Cc2ccc(Cl)s2)CC1 | < 70% |
| O=C(Nc1nc2c(s1)CCC2)c1cnn(-c2ccccc2)c1C1CC1 | < 70% |
| C=C(C)COc1ccc(-c2n[nH]c(C)c2-c2ccc(OC)c(OC)c2)c(O)c1 | < 70% |
| C=CC12CCN(CC1)C(C(O)c1ccnc3ccc(OC)cc13)C2 (centres undefined) | < 70% |
| Cc1cc(-c2nc(=O)c3ccccc3[nH]2)c(C)n1CC(C)C | < 70% |
| O=C(c1[nH]nc2c1CCCC2)N1CCN(Cc2ccc3c(c2)OCO3)CC1 | < 70% |
| Cc1ccc2c(c1)s/c(=N/C(=O)c1cccs1)n2C | < 70% |
| O=c1c2ccccc2cnn1-c1nc2ccccc2s1 | < 70% |
| CCOc1ccccc1NC(=O)CN1CCN(C(=O)c2ccco2)CC1 | < 70% |
| CC(C)(C)c1ccc(N[C@@H]2CCCC[C@H]2NC(=O)c2ccco2)cc1 | < 70% |
| CCCn1nc(C(=O)Nc2ccccc2N2CCc3ccccc3C2)ccc1=O | < 70% |

| Compound | growth inhibition at single dose |
| --- | --- |
| N#Cc1ccc(Cc2cnc(NC(=O)c3ccc4ncsc4c3)s2)cc1 | < 70% |
| CCOC(=O)c1[nH]c(C)c(C(=O)CN(C)S(=O)(=O)c2c(C)noc2C)c1C | < 70% |
| Cc1ccc(Nc2nc(NCCO)c3ccccc3n2)cc1C | < 70% |
| CCOc1cc2c(cc1OCC)C(c1cc(OC)c(O)cc1Cl)NCC2 (centres undefined) | < 70% |
| COCCN1COc2c(cc(Cl)c3cccnc23)C1 | < 70% |
| O=C(c1cc2ccccc2o1)N1CCN(Cc2ccc3c(c2)OCO3)CC1 | < 70% |
| CCN(CC)S(=O)(=O)c1ccc(OC(C)C)c(NC(=O)C2=CN3CCS(=O)(=O)N=C3C=C2)c1 | < 70% |
| CCCOc1ccc(C(F)(F)F)cc1NC(=O)c1nc2nccc(C)n2n1 | < 70% |
| c1ccc(-c2[nH]c3ccccc3c2C(c2ccccn2)N2CCCC2)cc1 (centres undefined) | < 70% |
| O=C(Nc1ccc(N2CCCC2)cn1)c1cccc(F)c1 | < 70% |
| Cc1[nH]c2cc(F)cc(F)c2c(=O)c1-c1ccc(Oc2ccc(OC(F)(F)F)cc2)cc1 | < 70% |
| CC1(c2ccccc2)Nc2ccccc2-c2nc3ccccc3n21 (centres undefined) | < 70% |
| COc1cccc(C=Cc2nc(=O)c3ccccc3o2)c1OC | < 70% |
| NCC(c1cccs1)S(=O)(=O)c1ccccc1 (centres undefined) | < 70% |
| NS(=O)(=O)c1cncc(-c2ccc3nccc(-c4cn[nH]c4)c3n2)c1 | < 70% |
| CCc1c(C(=O)Nc2ccn(CCc3ccccn3)n2)cnn1C(C)(C)C | < 70% |
| COc1ccc(-c2csc(NC(=O)CN3CCN(c4ncnc5c4cnn5C)CC3)n2)cc1 | < 70% |
| CCCc1ccc(S(=O)(=O)Nc2ccc(CN3CCN(CC4CC4)CC3)cc2)cc1 | < 70% |
| Cc1c(C)c(C)c(S(=O)(=O)N2CCN(C(C)C(=O)NC3CC3)CC2)c(C)c1C (centres undefined) | < 70% |
| O=c1cc(-c2ccccc2)[nH]c2ccccc12 | < 70% |
| CCCCCCc1cc2cc(-c3csc(C=Cc4ccccc4)n3)c(=O)oc2cc1O | < 70% |

| Compound | growth inhibition at single dose |
| --- | --- |
| CCN(CC)CCN1COc2c(cc(Cl)c3cccnc23)C1 | < 70% |
| COc1ccc(-c2nc(N3CCN(C(=O)C4CCCCC4)CC3)c3c4c(sc3n2)CCCC4)cc1 | < 70% |
| Cc1ccc(CN2CCC(C(=O)Nc3ccc(-c4cc5ccccc5[nH]4)cc3)CC2)o1 | < 70% |
| Cc1nc(NCCNc2cnccn2)c2c(-c3cccs3)csc2n1 | < 70% |
| Cc1nn(Cc2ccccc2)c(Cl)c1/C=C/C(=O)OC(C)C(=O)N1CCCC1 (centres undefined) | < 70% |
| CCCCn1c(C(C)Oc2ccc(Cl)cc2Cl)nc2cc(S(N)(=O)=O)ccc21 (centres undefined) | < 70% |
| O=C(NC1CCN(Cc2ccccc2)CC1)c1cc2nc(-c3ccc(Cl)s3)cc(C(F)(F)F)n2n1 | < 70% |
| Nc1cccnc1Nc1ccc(Cl)cc1 | < 70% |
| Clc1ccc(Cl)c(-c2ccc(CNCCN3CCNCC3)o2)c1 | < 70% |
| c1ccc(-c2ccc(-c3nc4ccccc4[nH]3)cc2)cc1 | < 70% |
| Cc1cc(N2CCCC2)nc(Nc2ccc(NC(=O)CCc3ccccc3)cc2)n1 | < 70% |
| CCOC(=O)c1cnc2ccc(OC)cc2c1Nc1ccc(N2CCN(C)CC2)cc1 | < 70% |
| COc1ccccc1-c1noc(-c2cc3c(s2)CCCCC3)n1 | < 70% |
| Cc1ccc2cc3c(N)c4c(C)ccc(C)c4nc3nc2c1 | < 70% |
| COc1ccc2c(c1)CCCC21NC(=O)N(Cc2nc3ccccc3s2)C1=O (centres undefined) | < 70% |
| Cc1ccc(-c2cc3nc4c(c(O)n3n2)CCCC4)cc1 | < 70% |
| COc1cccc(OCC(=O)c2ccc(Br)cc2)c1 | < 70% |
| COc1ccc(Br)cc1C1Nc2ccc3ccccc3c2C2=C1C(=O)CC(c1ccccc1)C2 (centres undefined) | < 70% |
| Oc1c(C(Nc2ccccn2)c2cccc(Oc3ccccc3)c2)ccc2cccnc12 (centres undefined) | < 70% |
| Cc1cc(C)n(-c2ccc(NC(=O)C3CCN(Cc4cnc(C)s4)CC3)cc2)n1 | < 70% |
| O=C(Nc1ccccc1C(=O)Nc1nnc(C(F)(F)F)s1)c1ccccc1 | < 70% |
